Ki data for 2 compounds are collected here from ChEMBL document CHEMBL1133125, “A sigma-1 receptor selective analogue of BD1008. A potential substitute for (+)-opioids in sigma receptor binding assays” (Bioorg Med Chem Lett, 2000).

The assay addresses Sigma 2 receptor. The assay can be described thus: Binding affinity against sigma 2 opioid receptor using 3[H]-DTG in the presence of dextrallorphan as radioligand.

Where only a bound is given, the exact number is not on record here.

With `CN(CCc1ccc(Cl)c(Cl)c1)CCN1CCCC1`, the Ki is 8.1 nM.
The value for `O=C(Cc1ccc(Cl)c(Cl)c1)OCCN1CCCC1` was more than 10000 nM.
